These compounds were tested on T. cruzi (assay: T. cruzi inhibition assay (beta-galactosidase T. cruzi co-cultured with NIH/3T3 host cells)). Details: Trypanosoma cruzi, NIH3T3; Table 2.
Assay type: cell-based
Protocol: A high-throughput screen of small molecules was performed in duplicate in the recombinant Tulahuen strain of T. cruzi stably expressing a beta-galactosidase reporter gene. Trypomastogote-stage parasites were co-cultured with mouse fibroblast NIH/3T3 host cells, (Buckner F S, Verlinde C L, La Flamme A C, Van Voorhis W C. Efficient technique for screening drugs for activity against Trypanosoma cruzi using parasites expressing beta-galactosidase. Antimicrob Agents Chemother. 1996; 40(11): 2592-2597). Signal was normalized to neutral (DMSO) controls, and a 75% inhibition cutoff was used to define a hit. Compounds initially designated as hits were retested in dose in the primary assay to confirm their inhibitory activity. In parallel, compounds were tested in toxicity assays against NIH/3T3 host cells to determine if these compounds were cytotoxic to mammalian cells and thus, false positives. Compounds that reduced the viability of NIH/3T3 cells were excluded as viable hits. A subset of hits were then tested in a similar infection assay with the Tulahuen strain of T. cruzi infecting murine L-6 cells and the intracellular T. cruzi immunofluorescence assay described below.
1. T. cruzi Inhibition Assay
98% DMEM, Phenol Red, 2% FBS, and 1% PSG were mixed and filtered through a 0.2 microns membrane. The cells were kept at 4° C., then warmed up to 37° C. in a water bath before use.
Gal-Screen. Using a Gal-Screen base kit, Buffer B (Catalog no. T2361) was mixed with 1:25 substrate (Catalog no. T2359).
NIH/3T3 cells were cultivated in DMEM supplemented with 10% FBS and 1% PSG in T175 in 50 mL total of medium.
Parasite Culture: T. cruzi β-gal (Tc): T. cruzi β-gal were cultivated in DMEM supplemented with 2% FBS and 1% PSG in T175 flasks with vented caps in 50 mL total of medium.
2. Growth Inhibition Assay for HTS (384-Well Plates)
The medium was warmed up with 2% FBS/DMEM. The parasites were harvested in 50-mL tubes, and spun for 10 minutes at 2200 rpm. Approximately 15 mL of media was aspirated, and the samples were incubated for 3-5 h. The NIH/3T3 cells were trypsinized (refer to cell culture protocol). When the NIH/3T3 cells were detached, the cells were harvested in DMEM, 2% FBS, and 1% PSG, then counted using the Nexcelom cellometer. The cells were diluted to 166,667 cells/mL, then added to a flask and plated 5,000 cells/30 μL per well using a standard cassette multiwall drob Combi. The cells were incubated for 3 h, then T. cruzi cells were counted, diluted to 0.166 million cells/mL, and transferred to a 2-liter flask. Then, […] compounds/DMSO were pinned to each well with NIH/3T3 cells. Next, 30 μL/well of parasites (5000 T. cruzi) were added with a standard cassette multiwall drop Combi on slow speed, and incubated for 4 days (or a minimum of 90 h). Gal-Screen was prepared, 30 μL per well were dispensed in a 384-well plate, incubated for 60 minutes, and the luminescence was read using Envision (Perkin-Elmer) at 0.1 sec/well.
`C[C@@H]1CN([C@@H](C)CO)C(=O)c2cccc(NC(=O)c3ccncc3)c2O[C@H]1CN(C)Cc1ccc2c(c1)OCO2` [Compound 36] gave an IC50 of 0.00659 µM. In the case of `C[C@@H]1CN([C@H](C)CO)C(=O)c2cccc(NC(=O)c3ccncc3)c2O[C@H]1CN(C)Cc1ccccc1` [Compound 37], the IC50 was 0.0153 µM. Compound `C[C@@H]1CN([C@@H](C)CO)C(=O)c2cccc(NC(=O)c3cnccn3)c2O[C@H]1CN(C)Cc1ccc(Oc2ccccc2)cc1` [Compound 38] has an IC50 of 1 µM. `COc1ccc(CN(C)C[C@@H]2Oc3c(NC(=O)c4ccncc4)cccc3C(=O)N([C@@H](C)CO)C[C@H]2C)cc1` [Compound 39] gave an IC50 of 0.011 µM. Compound `C[C@H]1CN([C@@H](C)CO)C(=O)c2cccc(NC(=O)c3ccncc3)c2O[C@@H]1CN(C)Cc1ccc(Oc2ccccc2)cc1` [Compound 40] has an IC50 of under 0.0026 µM. With `C[C@@H]1CN([C@H](C)CO)C(=O)c2cccc(NC(=O)c3ccncc3)c2O[C@H]1CN(C)Cc1ccc(Oc2ccccc2)cc1` [Compound 41] the IC50 was 0.000529 µM. `C[C@@H]1CN([C@@H](C)CO)C(=O)c2cccc(NC(=O)c3ccncc3)c2O[C@H]1CN(C)CC1CCCCC1` [Compound 42] was tested, and the IC50 was 0.0421 µM. Work on `C[C@@H]1CN([C@@H](C)CO)C(=O)c2cc(-c3cccnc3)cnc2O[C@H]1CN(C)Cc1ccc(Oc2ccccc2)cc1` [Compound 43] yielded an IC50 of 9.27 µM.
